Source: US8383581B2, “Short-chain peptides as parathyroid hormone (PTH) receptor agonist” (Cadila Healthcare Limited, priority 2009, dated 2013)
Where a SMILES comes first, the peptide text is derived from it. [ ]: non-standard residue; d: D form. ξ: configuration not given here. ξαMeBip(2'-Et,4'-OMe) = CCc1cc(OC)ccc1-c1ccc(CC(C)(N)C(=O)O)cc1; ξBip(2'-Et-4'-OMe) = CCc1cc(OC)ccc1-c1ccc(CC(N)C(=O)O)cc1; Arg(NO2) = N=C(NCCC[C@H](N)C(=O)O)N[N+](=O)[O-]; ξαMePhe(2,6-F2) = CC(N)(Cc1c(F)cccc1F)C(=O)O; ξαMe(hhPhe) = CC(N)(CCCc1ccccc1)C(=O)O; ξαMePhe(2-F) = CC(N)(Cc1ccccc1F)C(=O)O; ξαMeW = CC(N)(Cc1c[nH]c2ccccc12)C(=O)O; hhPhe = N[C@@H](CCCc1ccccc1)C(=O)O; hArg = N=C(N)NCCCC[C@H](N)C(=O)O; Cit = NC(=O)NCCC[C@H](N)C(=O)O; ξαMeNle = CCCCC(C)(N)C(=O)O; ξαMeV = CC(C)C(C)(N)C(=O)O; Nle = CCCC[C@H](N)C(=O)O; Orn = NCCC[C@H](N)C(=O)O; Ac5c = NC1(C(=O)O)CCCC1; Ac3c = NC1(C(=O)O)CC1; Aib = CC(C)(N)C(=O)O

Assays:
Assay type in all cases: in vitro ADME
[1] = Stability of peptides in human plasma; settings: human, plasma; for metabolised at 24 h, 2 μM: pH 7.8
Procedure, shortened: (§1)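 Peptides at 2 μM final incubated 0–24 h at 37 °C (50 mM triethanolamine-HCl, pH 7.8) in each matrix, matrix level set to degrade ~50% PTH(1-34) in 1 h; TFA-quenched, C18 HPLC at 206 nm with ESI-MS peak identification; percent degradation from peak areas at each time point.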

[2] = Stability of peptides in simulated gastric fluid (pH 1.5; HCl, NaCl and Pepsin); settings: pH 1.5; for % degradation of peptides in 24 h when incubated with simulated gastric fluid: 2 μM; for half-life / half-life (t1/2) in simulated gastric fluid: simulated gi fluid
[3] = Stability of peptides in simulated intestinal fluid (pH 7.5); settings: pH 7.5; for half-life / half-life (t1/2) in simulated intestinal fluid: simulated gi fluid; for % degradation of peptides in 24 h when incubated with simulated intestinal fluid: 2 μM
Procedure, shortened: as §1

[4] = Stability of peptides in human liver microsomes; settings: human, microsomes; for % degradation of peptides in 24 h when incubated with liver microsomes: 2 μM, pH 7.8
Procedure, shortened: as §1

Structure (SMILES)	half-life (t1/2) in human plasma [1]	metabolised at 24 h, 2 μM [1]	% degradation of peptides in 24 h when incubated with simulated gastric fluid [2]	half-life [2]	half-life [3]	% degradation of peptides in 24 h when incubated with simulated intestinal fluid [3]	half-life [4]	% degradation of peptides in 24 h when incubated with liver microsomes [4]	half-life [1]	half-life (t1/2) in liver microsomes [4]	half-life (t1/2) in simulated gastric fluid [2]	half-life (t1/2) in simulated intestinal fluid [3]
CCCC[C@H](NC(=O)C(C)(Cc1ccccc1F)NC(=O)[C@H](CCC(N)=O)NC(=O)[C@@H](NC(=O)[C@H](CCC(=O)O)NC(=O)C(C)(C)NC(=O)[C@@H](NC(=O)C(C)(C)N)C(C)C)[C@@H](C)CC)C(=O)N[C@@H](Cc1c[nH]cn1)C(=O)N[C@@H](CCC(N)=O)C(=O)NC(C)(C)C(=O)NC(C)(C)C(=O)NC(C)(Cc1c(F)cccc1F)C(=O)NC(C)(Cc1ccccc1F)C(N)=O (some centres unmarked) [Seq. ID. 570] (H-[Aib]V[Aib]EIQ[ξαMePhe(2-F)][Nle]HQ[Aib][Aib][ξαMePhe(2,6-F2)][ξαMePhe(2-F)]-NH2)	(9) h	71%	100%	30 min	30 min	100%	30 min	100%	–	–	–	–
CCCC[C@H](NC(=O)C(C)(Cc1ccccc1F)NC(=O)[C@H](CCC(N)=O)NC(=O)[C@@H](NC(=O)[C@H](CCC(=O)O)NC(=O)C(C)(C)NC(=O)[C@@H](NC(=O)C(C)(C)N)C(C)C)[C@@H](C)CC)C(=O)N[C@@H](Cc1c[nH]cn1)C(=O)N[C@@H](CCC(N)=O)C(=O)N[C@@H](CCCN)C(=O)NC(C)(C)C(=O)N[C@@H](CCCNC(N)=O)C(=O)NC(C)(Cc1c(F)cccc1F)C(N)=O (some centres unmarked) [Seq. ID. 290] (H-[Aib]V[Aib]EIQ[ξαMePhe(2-F)][Nle]HQ[Orn][Aib][Cit][ξαMePhe(2,6-F2)]-NH2)	(9) h	75%	100%	30 min	30 min	100%	30 min	100%	–	–	–	–
CCCC[C@H](NC(=O)C(C)(Cc1c(F)cccc1F)NC(=O)[C@H](CCC(N)=O)NC(=O)[C@@H](NC(=O)[C@H](CCC(=O)O)NC(=O)C(C)(C)NC(=O)[C@@H](NC(=O)C1(N)CCCC1)C(C)C)[C@@H](C)CC)C(=O)N[C@@H](Cc1c[nH]cn1)C(=O)N[C@@H](CCC(N)=O)C(=O)N[C@@H](CCCCNC(=N)N)C(=O)N[C@@H](C)C(=O)N[C@@H](CCCNC(=N)N)C(=O)NC(Cc1ccc(-c2ccc(OC)cc2CC)cc1)C(=O)N[C@@H](CCCc1ccccc1)C(N)=O (some centres unmarked) [Seq. ID. 811] (H-[Ac5c]V[Aib]EIQ[ξαMePhe(2,6-F2)][Nle]HQ[hArg]AR[ξBip(2'-Et-4'-OMe)][hhPhe]-NH2)	–	0%	52%	240 min	> 1440 min	00%	120 min	81%	> 1440 min	–	–	–
CCCC[C@H](NC(=O)C(C)(Cc1c(F)cccc1F)NC(=O)[C@H](CCC(N)=O)NC(=O)[C@@H](NC(=O)[C@H](CCC(=O)O)NC(=O)C(C)(C)NC(=O)[C@@H](NC(=O)C1(N)CCCC1)C(C)C)[C@@H](C)CC)C(=O)N[C@@H](Cc1c[nH]cn1)C(=O)N[C@@H](CCC(N)=O)C(=O)N[C@@H](CCCCNC(=N)N)C(=O)NC(C)(C)C(=O)N[C@@H](CCCNC(=N)N[N+](=O)[O-])C(=O)NC(C)(Cc1ccccc1F)C(N)=O (some centres unmarked) [Seq. ID. 260] (H-[Ac5c]V[Aib]EIQ[ξαMePhe(2,6-F2)][Nle]HQ[hArg][Aib][Arg(NO2)][ξαMePhe(2-F)]-NH2)	–	70%	15%	–	–	41%	60 min	77%	480 min	–	(8) h	(6) h
CCCC[C@H](NC(=O)C(C)(Cc1ccccc1F)NC(=O)[C@H](CCC(N)=O)NC(=O)[C@@H](NC(=O)[C@H](CCC(=O)O)NC(=O)C(C)(C)NC(=O)[C@@H](NC(=O)C(C)(C)N)C(C)C)[C@@H](C)CC)C(=O)N[C@@H](Cc1c[nH]cn1)C(=O)N[C@@H](CCC(N)=O)C(=O)N[C@@H](CCCCNC(=N)N)C(=O)N[C@@H](C)C(=O)NC(C)(C)C(=O)NC(C)(Cc1ccccc1F)C(N)=O (some centres unmarked) [Seq. ID. 161] (H-[Aib]V[Aib]EIQ[ξαMePhe(2-F)][Nle]HQ[hArg]A[Aib][ξαMePhe(2-F)]-NH2)	–	78%	14%	–	–	43%	60 min	80%	480 min	–	(8) h	(6) h

Second part, the compound after the results:

half-life (t1/2) in human plasma [1]	metabolised at 24 h, 2 μM [1]	% degradation of peptides in 24 h when incubated with simulated gastric fluid [2]	half-life [2]	half-life [3]	% degradation of peptides in 24 h when incubated with simulated intestinal fluid [3]	half-life [4]	% degradation of peptides in 24 h when incubated with liver microsomes [4]	half-life [1]	half-life (t1/2) in liver microsomes [4]	half-life (t1/2) in simulated gastric fluid [2]	half-life (t1/2) in simulated intestinal fluid [3]	Structure (SMILES)
(9) h	75%	100%	30 min	30 min	100%	30 min	100%	–	–	–	–	CCCCC(C)(NC(=O)[C@H](CC(C)C)NC(=O)[C@H](CCC(N)=O)NC(=O)[C@@H](NC(=O)[C@H](CCC(=O)O)NC(=O)C(C)(C)NC(=O)[C@@H](NC(=O)C1(N)CC1)C(C)C)[C@@H](C)CC)C(=O)N[C@@H](Cc1c[nH]cn1)C(=O)N[C@@H](CCC(N)=O)C(=O)N[C@@H](CCCCNC(=N)N)C(=O)N[C@@H](C)C(=O)N[C@@H](CCCCNC(=N)N)C(=O)NC(C)(Cc1c[nH]c2ccccc12)C(=O)N[C@@H](CCCc1ccccc1)C(N)=O (some centres unmarked) [Seq. ID. 945] (H-[Ac3c]V[Aib]EIQL[ξαMeNle]HQ[hArg]A[hArg][ξαMeW][hhPhe]-NH2)
(9) h	80%	100%	30 min	30 min	100%	30 min	100%	–	–	–	–	CCCCC(C)(NC(=O)[C@H](CC(C)C)NC(=O)[C@H](CCC(N)=O)NC(=O)[C@@H](NC(=O)[C@H](CCC(=O)O)NC(=O)C(C)(C)NC(=O)[C@@H](NC(=O)C(C)(C)NC(=O)[C@@H](N)C(C)C)C(C)C)[C@@H](C)CC)C(=O)N[C@@H](Cc1c[nH]cn1)C(=O)N[C@@H](CCC(N)=O)C(=O)N[C@@H](CCCCNC(=N)N)C(=O)N[C@@H](C)C(=O)N[C@@H](CCCCNC(=N)N)C(=O)NC(C)(Cc1ccc(-c2ccc(OC)cc2CC)cc1)C(=O)N[C@@H](CCCc1ccccc1)C(N)=O (some centres unmarked) [Seq. ID. 915] (H-V[Aib]V[Aib]EIQL[ξαMeNle]HQ[hArg]A[hArg][ξαMeBip(2'-Et,4'-OMe)][hhPhe]-NH2)
–	10%	08%	> 1320 min	> 1320 min	09%	–	33%	> 1200 min	(5) h	–	–	CCCCC(C)(NC(=O)[C@H](CC(C)C)NC(=O)[C@H](CCC(N)=O)NC(=O)[C@@H](NC(=O)[C@H](CCC(=O)O)NC(=O)C(C)(C)NC(=O)[C@@H](NC(=O)C1(NC(=O)C(C)(N)C(C)C)CCCC1)C(C)C)[C@@H](C)CC)C(=O)N[C@@H](Cc1c[nH]cn1)C(=O)N[C@@H](CCC(N)=O)C(=O)N[C@@H](CCCCNC(=N)N)C(=O)N[C@@H](C)C(=O)N[C@@H](CCCCNC(=N)N)C(=O)NC(C)(Cc1ccccc1F)C(=O)NC(C)(CCCc1ccccc1)C(N)=O (some centres unmarked) [Seq. ID. 939] (H-[ξαMeV][Ac5c]V[Aib]EIQL[ξαMeNle]HQ[hArg]A[hArg][ξαMePhe(2-F)][ξαMe(hhPhe)]-NH2)
–	9%	45%	240 min	> 1440 min	00%	120 min	85%	> 1380 min	–	–	–	CCCC[C@H](NC(=O)[C@H](CC(C)C)NC(=O)[C@H](CCC(N)=O)NC(=O)[C@@H](NC(=O)[C@H](CCC(=O)O)NC(=O)C(C)(C)NC(=O)[C@@H](NC(=O)C(C)(C)N)C(C)C)[C@@H](C)CC)C(=O)N[C@@H](Cc1c[nH]cn1)C(=O)N[C@@H](CCC(N)=O)C(=O)N[C@@H](CCCN)C(=O)N[C@@H](C)C(=O)NC(C)(C)C(=O)NC(Cc1ccc(-c2ccc(OC)cc2CC)cc1)C(=O)N[C@@H](CCCc1ccccc1)C(N)=O (some centres unmarked) [Seq. ID. 750] (H-[Aib]V[Aib]EIQL[Nle]HQ[Orn]A[Aib][ξBip(2'-Et-4'-OMe)][hhPhe]-NH2)
(9) h	78%	100%	30 min	30 min	100%	30 min	100%	–	–	–	–	CCc1cc(OC)ccc1-c1ccc(CC(NC(=O)[C@H](CCCCNC(=N)N)NC(=O)[C@H](C)NC(=O)[C@H](CCCCNC(=N)N)NC(=O)[C@H](CCC(N)=O)NC(=O)[C@H](Cc2c[nH]cn2)NC(=O)[C@H](CCSC)NC(=O)[C@H](CC(C)C)NC(=O)[C@H](CCC(N)=O)NC(=O)[C@@H](NC(=O)[C@H](CCC(=O)O)NC(=O)C(C)(C)NC(=O)[C@@H](NC(=O)C2(NC(=O)C(C)(N)C(C)C)CCCC2)C(C)C)[C@@H](C)CC)C(=O)NC(C)(CCCc2ccccc2)C(N)=O)cc1 (some centres unmarked) [Seq. ID. 906] (H-[ξαMeV][Ac5c]V[Aib]EIQLMHQ[hArg]A[hArg][ξBip(2'-Et-4'-OMe)][ξαMe(hhPhe)]-NH2)
